Reference: patent publication US20260144796A1, “Compounds and Methods for Improving Health” (Acurx Pharmaceuticals, Inc., priority 2022, published 2026)
Values after ≈ are worked out from the molar mass of the structure shown. Where two headings read alike, the source gives them in different places.

Legend:
[1] = system: certain Firmicutes (Lachnospiraceae and Lactobacilluseae); test: MIC, isolated gut microbiota species: certain Firmicutes; type: cell-based; conditions: inactive
Procedure: Strains plated onto blood agar (Hardy Diagnostics) with a 24-hour incubation at 37° C. in an anaerobic environment (Coy vinyl anaerobic chamber). After incubation, 3-5 well-isolated colonies were suspended into 5 mL of BHI broth (Criterion Media). The cultures were incubated in an anaerobic chamber for 24 hours to achieve a 0.5 McFarland Standard. […] Plates were allowed to dry in a sterile location. After drying, the plates were covered with foil to prevent any photo-damage to the hemin and placed in the anaerobic chamber for 1 hour to reduce the media. The broth culture was then spotted onto the plates and covered with foil. Plates were allowed to dry completely before inverting them for incubation for 48 hours. Plates were analyzed and MIC recorded.

gut microbiome = test: Phase 2a CDI clinical trial, gut microbiome (metagenomics); type: in vivo, human; conditions: CDI patients; for Proportion of isolated Firmicutes, Peptostreptococcaceae: baseline 2%; for Proportion of isolated Firmicutes, Other: baseline 5%; for Proportion of isolated Firmicutes, Ruminococcaceae: baseline 7%; for Proportion of isolated Firmicutes, Streptococcaceae: baseline 13%; for Proportion of isolated Firmicutes, Erysipelotrichaceae: baseline 18%; for Proportion of isolated Firmicutes, Lachnospiraceae: baseline 30%
Procedure: Phase 2a of this trial was an open label cohort of 10 subjects from study centers in the United States. In this cohort, 10 patients with diarrhea caused by mild or moderate C. difficile diagnosed via toxin EIA+ were treated with ibezapolstat 450 mg orally, twice daily for 10 days. All patients were followed for recurrence for 28±2 days. Stool was collected during course of therapy and at follow up. Patient fecal samples were evaluated for C. difficile culture and microbiome changes. […] Favorable microbiome changes included overgrowth of Actinobacteria and Firmicutes phylum species while on therapy. These findings support that microbiome effects may be predictive of beneficial patient outcomes including low rates of recurrence.
Phase 2a of this trial was an open label cohort of 10 subjects from study centers in the United States. In this cohort, 10 patients with diarrhea caused by mild or moderate C. difficile diagnosed via toxin EIA+ were treated with ibezapolstat 450 mg orally, twice daily for 10 days. Stool was collected during the course of therapy and at follow up.
Stool DNA was extracted using a DNAeasy Power Soil Pro kit (Qiagen, catalog number 1288-100) in a QiaCube automated DNA extraction system as previously described. (Garey K W, et al. A randomized, double-blind, placebo-controlled, single and multiple ascending dose Phase 1 study to determine the safety, pharmacokinetics and food and faecal microbiome effects of ibezapolstat administered orally to healthy subjects. J Antimicrob Chemother 2020; 75 (12): 3635-3643). Shotgun metagenomic sequencing was carried out at the University of Houston Sequencing and Gene Editing Core (Houston, TX USA) using the Nextera DNA Flex Library Prep Kit for DNA library preparation and an Illumina NextSeq 500 platform for sequencing. CLC Genomic Workbench version 12 (Qiagen) was used for metagenomic assembly and creation of the abundance table.
16S rRNA sequencing was performed to characterize microbial taxonomy as described in Gonzales-Luna 2021. The V3-V4 region of the 16S rRNA gene was sequenced using an Illumina-based sequencing platform with a minimum of 15,000 reads per sample to assess the gut microbiome community structure. Quality filtered sequence reads with at least 97% similarity were clustered into Operational Taxonomic Units (OTUs) and representative sequences from each OTU were assigned a taxonomic identity at the species level by searching against the NCBI 16S rRNA sequence database (release date Sep. 1, 2018) using NCBI BLAST+ package v2.8.1 2018.
The DNA extracted from fecal samples previously used for 16S rRNA sequencing was shotgun metagenome sequenced using an Illumina-based platform for analysis of microbiome functional genes. The functional gene profiling of the shotgun metagenome was performed using HUMAnN2 v0.11.2 pipeline.35 In the preprocessing step, quality filtering of sequencing reads was performed and followed by screening and removal of contaminant host (human) reads. Trimmomatic v0.38 was used for the filtering and trimming of raw sequence data with the default cut-off settings. The reads were searched against a human genome database in paired-end mode using bowtie2 algorithm and were discarded if they were mapped to the database. To obtain the gene family profiles, these quality-controlled metagenome sequences were first searched against a nucleotide database (ChocoPhlAn) using bowtie2 and then against a protein database (UniRef90) using diamond. All the identified gene families were annotated using UniRef90 and pathways using MetaCyc identifiers.

[2] = system: C. difficile clinical isolates; conditions: Clostridioides difficile, 24 h, agar dilution
[3] = 450 mg orally twice daily 10 days, day 3
[4] = 450 mg orally twice daily 10 days, day 5
[5] = 450 mg orally twice daily 10 days, day 8
[6] = 450 mg orally twice daily 10 days, day 10
[7] = 450 mg orally twice daily 10 days, day 12

For `O=c1[nH]c(NCc2ccc(Cl)c(Cl)c2)nc2ncn(CCN3CCOCC3)c12` [Ibezapolstat, 2-((3,4-dichlorobenzyl)amino)-7-(2-morpholinoethyl)-1,7-dihydro-6H-purin-6-one], the MIC [1] was over 64 µg/mL, the “Proportion of isolated Firmicutes, Eubacteriales Family XIII” value (from here on “Proportion … Eubacteriales Family XIII”) (gut microbiome; [3]) was 2% and the “Proportion of isolated Firmicutes, Peptostreptococcaceae” value (“Proportion … Peptostreptococcaceae” for short) (gut microbiome; [3]) was 1%. For the same compound, the “Proportion of isolated Firmicutes, Other” value (gut microbiome; [3]) was 9%, the “Proportion of isolated Firmicutes, Ruminococcaceae” value (“Proportion … Ruminococcaceae” below) (gut microbiome; [3]) was 25% and the “Proportion of isolated Firmicutes, Streptococcaceae” value (gut microbiome; [3]) was 3%. The “Proportion of isolated Firmicutes, Erysipelotrichaceae” value (from here on “Proportion … Erysipelotrichaceae”) (gut microbiome; [3]) was 24%, the “Proportion of isolated Firmicutes, Lachnospiraceae” value (shortened to “Proportion … Lachnospiraceae”) (gut microbiome; [3]) was 37% and the “Proportion … Eubacteriales Family XIII” value (gut microbiome; [4]) was 1%. The “Proportion of isolated Firmicutes, Other” value (gut microbiome; [4]) was 10%, the “Proportion … Ruminococcaceae” value (gut microbiome; [4]) was 38% and the “Proportion of isolated Firmicutes, Streptococcaceae” value (gut microbiome; [4]) was 1%. For the same compound, the “Proportion … Erysipelotrichaceae” value (gut microbiome; [4]) was 10%, the “Proportion … Lachnospiraceae” value (gut microbiome; [4]) was 38% and the “Proportion … Eubacteriales Family XIII” value (gut microbiome; [5]) was 3%. For the same compound, the “Proportion … Peptostreptococcaceae” value (gut microbiome; [5]) was 5%, the “Proportion of isolated Firmicutes, Other” value (gut microbiome; [5]) was 9% and the “Proportion … Ruminococcaceae” value (gut microbiome; [5]) was 30%. For the same compound, the “Proportion of isolated Firmicutes, Streptococcaceae” value (gut microbiome; [5]) was 4%, the “Proportion … Erysipelotrichaceae” value (gut microbiome; [5]) was 9% and the “Proportion of isolated Firmicutes, Veillonellaceae” value (gut microbiome; 450 mg orally twice daily 10 days, day 8, baseline 19%) was 5%. The “Proportion … Lachnospiraceae” value (gut microbiome; [5]) was 33%, the “Proportion … Eubacteriales Family XIII” value (gut microbiome; [6]) was 5% and the “Proportion … Peptostreptococcaceae” value (gut microbiome; [6]) was 4%. For the same compound, the “Proportion of isolated Firmicutes, Other” value (gut microbiome; [6]) was 8%, the “Proportion … Ruminococcaceae” value (gut microbiome; [6]) was 26% and the “Proportion of isolated Firmicutes, Streptococcaceae” value (gut microbiome; [6]) was 5%. The “Proportion … Erysipelotrichaceae” value (gut microbiome; [6]) was 17%, the “Proportion … Lachnospiraceae” value (gut microbiome; [6]) was 35% and the “Proportion … Eubacteriales Family XIII” value (gut microbiome; [7]) was 4%. The “Proportion … Peptostreptococcaceae” value (gut microbiome; [7]) was 6%, the “Proportion of isolated Firmicutes, Other” value (gut microbiome; [7]) was 10% and the “Proportion … Ruminococcaceae” value (gut microbiome; [7]) was 24%. The “Proportion of isolated Firmicutes, Streptococcaceae” value (gut microbiome; [7]) was 2%, the “Proportion … Erysipelotrichaceae” value (gut microbiome; [7]) was 6% and the “Proportion … Lachnospiraceae” value (gut microbiome; [7]) was 44%. The “Actinobacteria abundance after starting treatment” value (gut microbiome; primarily Coriobacteriales) was “increased in abundance”, the MIC ([2]; C. difficile clinical isolate MT 4802) was 4 µg/mL (≈ 9.45 µM) and the MIC ([2]; C. difficile clinical isolate MT 5071) was 8 µg/mL (≈ 18.9 µM). The MIC ([2]; C. difficile clinical isolate MT 5342) was 4 µg/mL (≈ 9.45 µM), the MIC ([2]; C. difficile clinical isolate MT 5364) was 4 µg/mL (≈ 9.45 µM) and the MIC ([2]; C. difficile clinical isolate MT 5382) was 8 µg/mL (≈ 18.9 µM). For the same compound, the MIC ([2]; C. difficile clinical isolate MT 5426) was 8 µg/mL (≈ 18.9 µM), the MIC ([2]; C. difficile clinical isolate MT 5493) was 4 µg/mL (≈ 9.45 µM) and the MIC ([2]; C. difficile clinical isolate MT 5515) was 8 µg/mL (≈ 18.9 µM). It also gave an MIC ([2]; C. difficile clinical isolate MT 5529) of 4 µg/mL (≈ 9.45 µM), an MIC ([2]; C. difficile clinical isolate MT 5536) of 8 µg/mL (≈ 18.9 µM) and an MIC ([2]; C. difficile clinical isolate SH 1132) of 8 µg/mL (≈ 18.9 µM).
